Test results taken from paper PMC7153038, “Pharmacologic inhibition of RGD‐binding integrins ameliorates fibrosis and improves function following kidney injury” (Physiological Reports, 2020).
Several values for one entry are separate records, joined by “and”; a condition that tells them apart may be missing. Equal entries are not always repeated.

System: kidney gene expression
Experiment: aristolochic acid kidney injury model, kidney RNA sequencing
Format: in vivo, mouse
Settings: for Fold change of Pdgfra by RNA‐seq, AA + CWHM-12: vehicle 5.02; for Fold change of Pdgfrb by RNA‐seq, AA + CWHM-12: vehicle 6.79; for Fold change of Foxd1 by RNA‐seq, AA + CWHM-12: vehicle 9.55; for Fold change of Gli1 by RNA‐seq, AA + CWHM-12: vehicle 20.44; for Fold change of Crlf1 by RNA‐seq, AA + CWHM-12: vehicle 37.57
Experimental: Alzet osmotic minipumps (Cupertino, CA) were implanted subcutaneously in 8‐ to 10‐week‐old wild‐type male ICR outbred mice (Envigo) one day prior to induction of kidney injury to deliver vehicle (DMSO/H2O 1:1) or CWHM‐12 at a dose of 100 mg/kg per day. A single 5 mg/kg dose of aristolochic acid I sodium salt (Sigma‐Aldrich, A9451) in PBS was administered intraperitoneally to induce kidney injury, and mice were monitored daily for 27 days thereafter. Control (uninjured) mice were injected with an equal volume of PBS. Blood was obtained by maxillary vein puncture on days 0, 5 (peak injury), and 28 (study endpoint). For testing CWHM‐680, oral gavage (100 mg/kg per day) was started one day prior to injection of aristolochic acid I sodium salt and continued once daily until the study endpoint. Blood was obtained at days 0, 7, and 23 (study endpoint). […] Serum creatinine was measured by liquid chromatography–mass spectrometry (LC–MS/MS) at the University of Alabama O’Brien Center Bioanalytical Core. CWHM‐12 and CWHM‐680 concentrations were measured in plasma samples by liquid chromatography–tandem mass spectrometry (LC/MS/MS) using compound spiked into control plasma as a standard. All experiments were performed under protocols approved by the Institutional Animal Care and Use Committee at St. Louis University.
Total RNA was isolated from four kidneys from each of the three study groups using the RNeasy Plus Mini Kit (Qiagen). The groups were as follows: (a) aristolochic acid plus vehicle, (b) aristolochic acid plus CWHM‐12, and (c) PBS plus vehicle. After ribosomal depletion, we constructed barcoded sequencing libraries using the Ion Total RNA‐seq v2 kits (Life Technologies) according to the manufacturer's instructions. Sequencing was performed on an Ion Torrent Proton with mean read lengths of 85–110 nucleotides, and reads were aligned to the mouse mm10 genome using the TMAP aligner map4 algorithm. Soft clipping at both 5′ and 3′ ends of the reads was permitted during alignment to accommodate spliced reads, with a minimum seed length of 20 nucleotides. Genome‐wide strand‐specific nucleotide coverages were calculated from the aligned bam files for each sample using the “genomecoveragebed” program in BEDTools (Quinlan & Hall, 2010), and the nucleotide coverage for all nonredundant exons for each gene was summed using custom R scripts (http://www.Rproject.org). Normalization factors were calculated by averaging the total exon coverage for all replicates and dividing this average by the total exon coverage for each individual sample. The total coverage for each gene in each replicate was then multiplied by these factors after adding an offset of 1 to each gene to preclude division by 0 in subsequent calculations. The averages and p values of the coverage values for all genes in the individual groups were calculated using Microsoft Excel, using a two‐tailed t‐test. The expression values for each gene are the normalized strand‐specific total nucleotide coverage for each gene. The complete data set can be accessed at https://figshare.com/s/54c7f78b4523873e9b00.

[1] = AA-injured, 100 mg/kg/day s.c. minipump
[2] = AA-injured, 100 mg/kg/day s.c. minipump, relative to uninjured, 100 mg/kg/day
[3] = AA-injured, 100 mg/kg/day s.c. minipump, relative to uninjured, listed as CWHM−12, 100 mg/kg/day

CC(C)(C)c1cc(Br)cc([C@H](CC(=O)O)NC(=O)CNC(=O)c2cc(O)cc(NC3=NCC(O)CN3)c2)c1 (stereo partly shown) [CWHM‐12]
Acta2 RNA‐seq ratio AA + CWHM-12/AA + Vehicle [1]: 0.8473 | Aldh1a2 RNA‐seq ratio AA + CWHM-12/AA + Vehicle [1]: 0.6492 | Col1a1 RNA‐seq ratio AA + CWHM-12/AA + Vehicle [1]: 0.2480 | Col3a1 RNA‐seq ratio AA + CWHM-12/AA + Vehicle [1]: 0.3560 | Col5a3 RNA‐seq ratio AA + CWHM-12/AA + Vehicle [1]: 0.5587 | Crlf1 RNA‐seq ratio AA + CWHM-12/AA + Vehicle [1]: 0.1032 | Ctgf RNA‐seq ratio AA + CWHM-12/AA + Vehicle [1]: 0.5510 | Egf expression increase in injured animals, RNA-seq [1]: twofold | Fbln2 RNA‐seq ratio AA + CWHM-12/AA + Vehicle [1]: 0.5262 | Fn1 RNA‐seq ratio AA + CWHM-12/AA + Vehicle [1]: 0.5243 | Foxd1 RNA‐seq ratio AA + CWHM-12/AA + Vehicle [1]: 0.3427 | Gda RNA‐seq ratio AA + CWHM-12/AA + Vehicle [1]: 0.6302 | Gli1 RNA‐seq ratio AA + CWHM-12/AA + Vehicle [1]: 0.4486 | Gli2 RNA‐seq ratio AA + CWHM-12/AA + Vehicle [1]: 0.8986 | Gli3 RNA‐seq ratio AA + CWHM-12/AA + Vehicle [1]: 0.6039 | Mmp2 RNA‐seq ratio AA + CWHM-12/AA + Vehicle [1]: 0.4013 | NGAL (Lcn2) expression decrease vs vehicle-treated injured mice, RNA-seq [1]: 50% | Nes RNA‐seq ratio AA + CWHM-12/AA + Vehicle [1]: 0.4461 | Pdgfra RNA‐seq ratio AA + CWHM-12/AA + Vehicle [1]: 0.7298 | Pdgfrb RNA‐seq ratio AA + CWHM-12/AA + Vehicle [1]: 0.4393 | Rgs16 RNA‐seq ratio AA + CWHM-12/AA + Vehicle [1]: 0.4692 | Shroom3 RNA‐seq ratio AA + CWHM-12/AA + Vehicle [1]: 0.5633 | Tgfb1 RNA‐seq ratio AA + CWHM-12/AA + Vehicle [1]: 0.5715 | Tgfb2 RNA‐seq ratio AA + CWHM-12/AA + Vehicle [1]: 0.8306 | Tgfb3 RNA‐seq ratio AA + CWHM-12/AA + Vehicle [1]: 0.5937 | Thbs2 RNA‐seq ratio AA + CWHM-12/AA + Vehicle [1]: 0.5603 | Thbs4 RNA‐seq ratio AA + CWHM-12/AA + Vehicle [1]: 0.4558 | reduction of Myc expression, RNA-seq [1]: 35% | reduction of upregulation of eight keratin genes (Krt 7, 8, 15, 18–20, 23, 80), RNA-seq [1]: 15%–50% | decrease of Sox9 induction, RNA-seq (AA-injured, 100 mg/kg/day s.c. minipump, induction 45-fold with vehicle): 57% | Fold change of Gli2 by RNA‐seq, AA + CWHM-12 (AA-injured, 100 mg/kg/day s.c. minipump, relative to uninjured, vehicle 0.87): 0.78 fold | Fold change of Acta2 by RNA‐seq, AA + CWHM-12 (AA-injured, 100 mg/kg/day s.c. minipump, relative to uninjured, vehicle 3.7): 3.2 fold | Fold change of Shroom3 by RNA‐seq, AA + CWHM-12 (AA-injured, 100 mg/kg/day s.c. minipump, relative to uninjured, vehicle 3.9): 2.2 fold | Fold change of Tgfb2 by RNA‐seq, AA + CWHM-12 (AA-injured, 100 mg/kg/day s.c. minipump, relative to uninjured, vehicle 4.9): 4.1 fold | Fold change of Pdgfra by RNA‐seq, AA + CWHM-12 [2]: 3.7 fold | Fold change of Pdgfra by RNA‐seq, AA + CWHM-12 [3]: 3.66 fold | Fold change of Fbln2 by RNA‐seq, AA + CWHM-12 (AA-injured, 100 mg/kg/day s.c. minipump, relative to uninjured, vehicle 5.78): 3.04 fold | Fold change of Col5a3 by RNA‐seq, AA + CWHM-12 (AA-injured, 100 mg/kg/day s.c. minipump, relative to uninjured, vehicle 5.81): 3.25 fold | Fold change of Ctgf by RNA‐seq, AA + CWHM-12 (AA-injured, 100 mg/kg/day s.c. minipump, relative to uninjured, vehicle 6.4): 3.5 fold | Fold change of Pdgfrb by RNA‐seq, AA + CWHM-12 [2]: 3.0 fold | Fold change of Pdgfrb by RNA‐seq, AA + CWHM-12 [3]: 2.98 fold | Fold change of Tgfb1 by RNA‐seq, AA + CWHM-12 (AA-injured, 100 mg/kg/day s.c. minipump, relative to uninjured, vehicle 7.4): 4.2 fold | Fold change of Thbs2 by RNA‐seq, AA + CWHM-12 (AA-injured, 100 mg/kg/day s.c. minipump, relative to uninjured, vehicle 7.78): 4.36 fold | Fold change of Gda by RNA‐seq, AA + CWHM-12 (AA-injured, 100 mg/kg/day s.c. minipump, relative to uninjured, vehicle 8.17): 5.15 fold | Fold change of Tgfb3 by RNA‐seq, AA + CWHM-12 (AA-injured, 100 mg/kg/day s.c. minipump, relative to uninjured, vehicle 8.3): 4.9 fold | Fold change of Thbs4 by RNA‐seq, AA + CWHM-12 (AA-injured, 100 mg/kg/day s.c. minipump, relative to uninjured, vehicle 8.72): 3.97 fold | Fold change of Nes by RNA‐seq, AA + CWHM-12 (AA-injured, 100 mg/kg/day s.c. minipump, relative to uninjured, vehicle 8.77): 3.91 fold | Fold change of Foxd1 by RNA‐seq, AA + CWHM-12 [2]: 3.3 fold | Fold change of Foxd1 by RNA‐seq, AA + CWHM-12 [3]: 3.27 fold | Fold change of Fn1 by RNA‐seq, AA + CWHM-12 (AA-injured, 100 mg/kg/day s.c. minipump, relative to uninjured, vehicle 12.6): 6.6 fold | Fold change of Gli1 by RNA‐seq, AA + CWHM-12 [2]: 9.2 fold | Fold change of Gli1 by RNA‐seq, AA + CWHM-12 [3]: 9.17 fold | Fold change of Mmp2 by RNA‐seq, AA + CWHM-12 (AA-injured, 100 mg/kg/day s.c. minipump, relative to uninjured, vehicle 24.6): 9.9 fold | Fold change of Gli3 by RNA‐seq, AA + CWHM-12 (AA-injured, 100 mg/kg/day s.c. minipump, relative to uninjured, vehicle 24.87): 15.02 fold | Fold change of Col3a1 by RNA‐seq, AA + CWHM-12 (AA-injured, 100 mg/kg/day s.c. minipump, relative to uninjured, vehicle 28.0): 10.0 fold | Fold change of Aldh1a2 by RNA‐seq, AA + CWHM-12 (AA-injured, 100 mg/kg/day s.c. minipump, relative to uninjured, vehicle 32.44): 21.06 fold | Fold change of Crlf1 by RNA‐seq, AA + CWHM-12 [2]: 3.9 fold | Fold change of Crlf1 by RNA‐seq, AA + CWHM-12 [3]: 3.88 fold | Fold change of Col1a1 by RNA‐seq, AA + CWHM-12 (AA-injured, 100 mg/kg/day s.c. minipump, relative to uninjured, vehicle 42.1): 10.4 fold | Fold change of Rgs16 by RNA‐seq, AA + CWHM-12 (AA-injured, 100 mg/kg/day s.c. minipump, relative to uninjured, vehicle 55.80): 26.19 fold | Cdk1 expression level, fold higher, RNA-seq (AA-injured, 100 mg/kg/day s.c. minipump, vehicle 12-fold): 1.9 fold | Ccnb1 expression level, fold higher, RNA-seq (AA-injured, 100 mg/kg/day s.c. minipump, vehicle 23-fold): 1.4 fold | 0610005C13Rik RNA-seq normalized coverage, AA CWHM12.AVE (AA-injured, group average): 114105 | 0610007N19Rik RNA-seq normalized coverage, AA CWHM12.AVE (AA-injured, group average): 54308 | 0610007P14Rik RNA-seq normalized coverage, AA CWHM12.AVE (AA-injured, group average): 56128 | 0610008F07Rik RNA-seq normalized coverage, AA CWHM12.AVE (AA-injured, group average): 5309 | 0610009B14Rik RNA-seq normalized coverage, AA CWHM12.AVE (AA-injured, group average): 1314 | 0610005C13Rik RNA-seq normalized coverage, AA CWHM12 individual replicates (AA-injured, replicates 1-3): 95741 and 94900 and 151673 | 0610007N19Rik RNA-seq normalized coverage, AA CWHM12 individual replicates (AA-injured, replicates 1-3): 42985 and 46254 and 73685 | 0610007P14Rik RNA-seq normalized coverage, AA CWHM12 individual replicates (AA-injured, replicates 1-3): 42349 and 51087 and 74947 | 0610008F07Rik RNA-seq normalized coverage, AA CWHM12 individual replicates (AA-injured, replicates 1-3): 4229 and 2946 and 8751 | 0610009B14Rik RNA-seq normalized coverage, AA CWHM12 individual replicates (AA-injured, replicates 1-3): 1407 and 899 and 1635 | 0610005C13Rik AA CWHM12/AA Vehicle.RATIO (RNA-seq): 2.041 | 0610005C13Rik AA CWHM12/PBS Vehicle.RATIO (RNA-seq): 0.462 | 0610007N19Rik AA CWHM12/AA Vehicle.RATIO (RNA-seq): 1.380 | 0610007N19Rik AA CWHM12/PBS Vehicle.RATIO (RNA-seq): 1.337 | 0610007P14Rik AA CWHM12/AA Vehicle.RATIO (RNA-seq): 1.629 | 0610007P14Rik AA CWHM12/PBS Vehicle.RATIO (RNA-seq): 1.142 | 0610008F07Rik AA CWHM12/AA Vehicle.RATIO (RNA-seq): 4.723 | 0610008F07Rik AA CWHM12/PBS Vehicle.RATIO (RNA-seq): 0.373 | 0610009B14Rik AA CWHM12/AA Vehicle.RATIO (RNA-seq): 1.572 | 0610009B14Rik AA CWHM12/PBS Vehicle.RATIO (RNA-seq): 1.915
